Results from ChEMBL document CHEMBL1201862, “PubChem BioAssay data set” (2004).
Active and inactive are the calls of the source.

Legend:
cells [1] = type: functional, cell-based
[2] = target: T1, Trace amine-associated receptor 1 (Homo sapiens, UniProt Q96RJ0); experiment: Fluorescence-based cell-based high throughput dose response assay to identify agonists of the human trace amine associated receptor 1 (TAAR1).; type: functional
T1 sequence (Q96RJ0 whole entry): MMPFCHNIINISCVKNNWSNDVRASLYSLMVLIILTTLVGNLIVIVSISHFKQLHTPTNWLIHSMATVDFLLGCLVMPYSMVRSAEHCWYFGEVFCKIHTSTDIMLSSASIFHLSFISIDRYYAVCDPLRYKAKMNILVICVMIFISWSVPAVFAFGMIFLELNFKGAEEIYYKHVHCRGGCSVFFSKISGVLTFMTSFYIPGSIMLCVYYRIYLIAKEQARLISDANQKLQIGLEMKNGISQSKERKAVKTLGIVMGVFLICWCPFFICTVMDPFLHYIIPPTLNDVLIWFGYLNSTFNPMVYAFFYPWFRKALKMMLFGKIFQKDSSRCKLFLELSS

cells [3] = type: functional, cell-based; remark: listed apart in the source
[4] = target: T1, Trace amine-associated receptor 1; experiment: Counterscreen for agonists of the human trace amine associated receptor 1 (hTAAR1): Fluorescence-based cell-based high throughput dose response assay to identify hTAAR1 agonist that also desensitize TAAR1 receptor response.; type: functional
[5] = target: Fructose-bisphosphate aldolase (Mycobacterium tuberculosis, UniProt P9WQA3); experiment: Fluorescence-based biochemical high throughput dose response assay for inhibitors of the fructose-bisphosphate aldolase (FBA) of M. tuberculosis.; type: functional
Sequence of Fructose-bisphosphate aldolase (P9WQA3 whole entry): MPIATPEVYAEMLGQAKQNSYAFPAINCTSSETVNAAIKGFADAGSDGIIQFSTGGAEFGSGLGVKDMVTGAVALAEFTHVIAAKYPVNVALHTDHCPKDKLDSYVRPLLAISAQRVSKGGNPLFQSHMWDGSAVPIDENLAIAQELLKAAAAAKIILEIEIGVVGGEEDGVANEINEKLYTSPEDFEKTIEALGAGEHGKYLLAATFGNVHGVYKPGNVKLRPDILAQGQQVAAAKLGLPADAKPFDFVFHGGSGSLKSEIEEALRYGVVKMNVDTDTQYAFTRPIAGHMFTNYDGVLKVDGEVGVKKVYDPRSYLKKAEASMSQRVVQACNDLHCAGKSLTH

[6] = target: T2, Heat shock factor protein 1 (Mus musculus, UniProt P38532); experiment: inhibition of MG132-induced HSE-luciferase signal, confirmation, cell-based, NIH3T3, luminescence, dose retest (AID 2382); type: functional;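 further: NIH3T3 fibroblasts with HSF1-driven luciferase reporter stressed by proteasome inhibitor MG132; luminescence from HSF1-driven luciferase expression after 8 hours of MG132 stress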
T2 sequence (P38532 whole entry): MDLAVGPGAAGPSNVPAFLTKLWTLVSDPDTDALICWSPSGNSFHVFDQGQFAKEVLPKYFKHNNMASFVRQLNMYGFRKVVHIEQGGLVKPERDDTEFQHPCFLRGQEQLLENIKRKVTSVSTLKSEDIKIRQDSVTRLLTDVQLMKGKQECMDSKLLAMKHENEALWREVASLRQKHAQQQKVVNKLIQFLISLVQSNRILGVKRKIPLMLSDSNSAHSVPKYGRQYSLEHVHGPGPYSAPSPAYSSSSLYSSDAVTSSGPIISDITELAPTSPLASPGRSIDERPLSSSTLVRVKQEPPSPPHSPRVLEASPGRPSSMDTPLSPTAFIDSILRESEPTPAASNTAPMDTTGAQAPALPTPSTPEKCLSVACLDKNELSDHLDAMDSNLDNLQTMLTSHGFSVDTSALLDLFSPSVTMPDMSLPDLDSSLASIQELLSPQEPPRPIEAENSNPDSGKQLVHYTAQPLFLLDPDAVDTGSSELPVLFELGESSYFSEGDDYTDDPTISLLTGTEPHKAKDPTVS

[7] = cytotoxicity toward NIH3T3 fibroblasts, dose response, counter-screen, cell-based, ATP luminescence, mouse fibroblasts (AID 2010); type: functional;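 further: cells exposed to compound for about 90 hours before reading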
[8] = target: T3, Corticotropin-releasing factor receptor 2/Corticotropin-releasing factor-binding protein (Homo sapiens, UniProt P24387+Q13324); experiment: Dose Response confirmation of uHTS hits for small molecule antagonists of the CRF-binding protein and CRF-R2 receptor complex.; type: functional; conditions: read-out: IC50_Mean
T3 sequence (Q13324 whole entry): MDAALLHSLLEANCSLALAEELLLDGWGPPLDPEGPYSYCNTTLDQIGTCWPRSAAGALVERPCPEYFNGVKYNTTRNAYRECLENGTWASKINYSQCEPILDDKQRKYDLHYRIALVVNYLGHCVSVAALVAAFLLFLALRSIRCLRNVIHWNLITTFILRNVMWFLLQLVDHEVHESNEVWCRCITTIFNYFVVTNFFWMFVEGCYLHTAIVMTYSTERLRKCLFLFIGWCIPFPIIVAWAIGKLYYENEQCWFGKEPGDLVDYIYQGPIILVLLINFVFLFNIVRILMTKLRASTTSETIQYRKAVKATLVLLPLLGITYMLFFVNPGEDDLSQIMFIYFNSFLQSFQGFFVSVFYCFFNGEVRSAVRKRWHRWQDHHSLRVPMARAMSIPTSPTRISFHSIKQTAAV
T3 sequence (P24387 whole entry): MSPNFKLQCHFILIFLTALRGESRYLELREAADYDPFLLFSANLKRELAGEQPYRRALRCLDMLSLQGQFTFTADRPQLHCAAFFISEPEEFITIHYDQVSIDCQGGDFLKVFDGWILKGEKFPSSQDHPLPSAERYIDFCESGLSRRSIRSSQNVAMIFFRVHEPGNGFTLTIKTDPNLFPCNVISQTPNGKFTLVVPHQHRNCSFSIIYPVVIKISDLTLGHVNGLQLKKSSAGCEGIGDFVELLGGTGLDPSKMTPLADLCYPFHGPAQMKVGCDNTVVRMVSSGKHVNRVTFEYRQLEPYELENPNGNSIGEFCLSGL

[9] = target: T3, Corticotropin-releasing factor receptor 2/Corticotropin-releasing factor-binding protein; experiment: activators of CRF receptor 2 with binding protein – uHTS hits, confirmation (AID 602473); type: functional; conditions: read-out: EC50_Mean
[10] = inhibitors of intracellular T. cruzi replication, confirmation, NIH3T3 host cells, beta-gal luminescence (AID 2044); type: functional, cell-based;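 further: intracellular parasites grown in NIH/3T3 mouse fibroblasts as host cells; luminescent beta-galactosidase reporter signal from transgenic T. cruzi replicating inside host cells; inhibitors lower the luminescence signal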
[11] = target: Voltage-dependent T-type calcium channel subunit alpha-1H (Homo sapiens, UniProt O95180); type: functional;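 further: channel activity triggered by adding a high calcium stimulation buffer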
Sequence of Voltage-dependent T-type calcium channel subunit alpha-1H (O95180 whole entry): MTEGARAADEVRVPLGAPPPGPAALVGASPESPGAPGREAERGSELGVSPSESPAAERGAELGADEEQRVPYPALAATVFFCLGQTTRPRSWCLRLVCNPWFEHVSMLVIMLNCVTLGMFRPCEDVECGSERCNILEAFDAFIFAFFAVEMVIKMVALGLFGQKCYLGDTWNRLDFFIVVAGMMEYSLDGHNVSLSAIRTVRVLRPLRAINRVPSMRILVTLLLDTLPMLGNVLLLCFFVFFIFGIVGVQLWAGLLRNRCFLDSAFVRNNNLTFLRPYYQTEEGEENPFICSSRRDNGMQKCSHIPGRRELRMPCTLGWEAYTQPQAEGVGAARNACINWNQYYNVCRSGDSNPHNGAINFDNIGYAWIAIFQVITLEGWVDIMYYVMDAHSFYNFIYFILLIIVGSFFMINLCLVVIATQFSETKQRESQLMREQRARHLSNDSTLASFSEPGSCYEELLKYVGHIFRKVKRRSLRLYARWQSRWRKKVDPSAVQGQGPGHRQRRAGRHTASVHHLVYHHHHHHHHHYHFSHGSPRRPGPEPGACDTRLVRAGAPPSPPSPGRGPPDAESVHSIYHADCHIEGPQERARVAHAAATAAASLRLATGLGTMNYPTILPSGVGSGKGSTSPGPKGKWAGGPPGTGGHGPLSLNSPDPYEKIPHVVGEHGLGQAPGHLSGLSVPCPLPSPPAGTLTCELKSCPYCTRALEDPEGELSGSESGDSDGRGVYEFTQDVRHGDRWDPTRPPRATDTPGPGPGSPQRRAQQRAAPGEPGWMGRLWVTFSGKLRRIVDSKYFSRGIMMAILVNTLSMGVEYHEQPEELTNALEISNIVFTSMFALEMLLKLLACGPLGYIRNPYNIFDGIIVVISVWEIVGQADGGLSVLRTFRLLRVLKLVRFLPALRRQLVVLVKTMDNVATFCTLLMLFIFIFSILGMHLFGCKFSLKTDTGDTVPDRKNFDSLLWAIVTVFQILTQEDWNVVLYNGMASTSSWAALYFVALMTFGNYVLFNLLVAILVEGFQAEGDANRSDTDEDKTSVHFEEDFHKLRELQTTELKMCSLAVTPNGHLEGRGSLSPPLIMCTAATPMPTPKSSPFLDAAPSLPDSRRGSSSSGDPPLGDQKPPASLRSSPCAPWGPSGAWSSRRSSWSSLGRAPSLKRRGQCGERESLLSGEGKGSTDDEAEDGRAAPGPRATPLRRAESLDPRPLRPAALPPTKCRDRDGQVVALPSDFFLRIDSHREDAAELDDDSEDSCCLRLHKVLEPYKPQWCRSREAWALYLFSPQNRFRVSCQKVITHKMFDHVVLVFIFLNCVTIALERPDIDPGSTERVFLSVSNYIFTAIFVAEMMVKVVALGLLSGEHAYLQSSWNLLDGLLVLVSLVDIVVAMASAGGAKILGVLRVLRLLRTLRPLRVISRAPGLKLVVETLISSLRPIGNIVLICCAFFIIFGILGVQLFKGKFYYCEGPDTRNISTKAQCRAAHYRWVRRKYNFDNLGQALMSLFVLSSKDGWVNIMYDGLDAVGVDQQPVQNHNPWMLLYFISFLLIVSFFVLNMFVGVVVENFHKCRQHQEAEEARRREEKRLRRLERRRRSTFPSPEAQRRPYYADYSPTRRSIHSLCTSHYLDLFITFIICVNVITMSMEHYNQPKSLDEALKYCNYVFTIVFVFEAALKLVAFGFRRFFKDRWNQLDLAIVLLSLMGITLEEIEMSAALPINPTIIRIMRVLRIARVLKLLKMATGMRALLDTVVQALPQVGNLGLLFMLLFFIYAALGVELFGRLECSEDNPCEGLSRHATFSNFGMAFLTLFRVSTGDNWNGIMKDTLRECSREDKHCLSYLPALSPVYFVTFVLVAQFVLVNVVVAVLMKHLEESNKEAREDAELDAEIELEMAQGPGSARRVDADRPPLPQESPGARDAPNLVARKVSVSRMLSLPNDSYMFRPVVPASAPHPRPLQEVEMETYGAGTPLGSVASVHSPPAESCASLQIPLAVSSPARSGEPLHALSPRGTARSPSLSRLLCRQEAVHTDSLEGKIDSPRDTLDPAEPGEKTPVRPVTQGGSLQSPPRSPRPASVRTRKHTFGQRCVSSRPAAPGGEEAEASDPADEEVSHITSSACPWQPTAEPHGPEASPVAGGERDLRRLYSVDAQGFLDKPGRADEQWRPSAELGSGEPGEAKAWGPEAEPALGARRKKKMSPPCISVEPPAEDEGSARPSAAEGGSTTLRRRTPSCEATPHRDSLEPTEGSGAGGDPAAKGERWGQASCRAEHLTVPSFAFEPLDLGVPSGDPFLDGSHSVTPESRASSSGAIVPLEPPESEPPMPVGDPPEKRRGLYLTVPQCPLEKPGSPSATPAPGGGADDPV

Beta-galactosidase = Beta-galactosidase (Escherichia coli, UniProt Q8VNN2); experiment: Dose response counterscreen for EBI2 assay utilizing the enzyme, b-galactosidase.; type: functional
Sequence of Beta-galactosidase (Q8VNN2 whole entry): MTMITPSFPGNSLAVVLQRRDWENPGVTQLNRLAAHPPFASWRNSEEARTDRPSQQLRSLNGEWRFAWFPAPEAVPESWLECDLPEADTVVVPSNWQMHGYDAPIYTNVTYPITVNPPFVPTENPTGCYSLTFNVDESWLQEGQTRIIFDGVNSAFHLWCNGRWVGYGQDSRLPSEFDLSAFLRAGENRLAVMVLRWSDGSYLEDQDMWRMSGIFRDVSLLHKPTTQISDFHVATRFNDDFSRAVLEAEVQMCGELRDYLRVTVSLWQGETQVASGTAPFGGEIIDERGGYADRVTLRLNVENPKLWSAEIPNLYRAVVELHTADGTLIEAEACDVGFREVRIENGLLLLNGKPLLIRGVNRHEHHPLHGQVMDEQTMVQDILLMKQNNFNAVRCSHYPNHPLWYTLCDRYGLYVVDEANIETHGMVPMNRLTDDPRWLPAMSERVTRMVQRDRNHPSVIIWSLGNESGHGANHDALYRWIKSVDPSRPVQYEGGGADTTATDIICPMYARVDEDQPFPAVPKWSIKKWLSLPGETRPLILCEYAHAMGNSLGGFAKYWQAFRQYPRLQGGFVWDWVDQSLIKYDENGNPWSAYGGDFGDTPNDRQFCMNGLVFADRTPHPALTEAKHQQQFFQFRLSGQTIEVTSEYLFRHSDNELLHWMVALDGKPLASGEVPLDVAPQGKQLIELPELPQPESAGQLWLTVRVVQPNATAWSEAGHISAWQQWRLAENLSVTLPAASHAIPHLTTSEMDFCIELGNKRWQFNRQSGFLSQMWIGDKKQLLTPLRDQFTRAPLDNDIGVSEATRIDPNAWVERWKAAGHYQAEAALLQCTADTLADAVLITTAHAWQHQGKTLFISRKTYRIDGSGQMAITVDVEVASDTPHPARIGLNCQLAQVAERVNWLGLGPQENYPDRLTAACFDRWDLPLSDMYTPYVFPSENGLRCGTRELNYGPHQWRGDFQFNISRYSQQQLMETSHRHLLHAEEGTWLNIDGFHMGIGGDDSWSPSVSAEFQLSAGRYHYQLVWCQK

[12] = target: T2, Heat shock factor protein 1; experiment: HSF1 potentiators in luciferase reporter cells, confirmation, cell-based, NIH3T3, luminescence, dose retest (AID 435004); type: functional;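 further: stress induced by proteasome inhibitor MG132 added 30 min after compound; luciferase reporter driven by HSF1 response element in NIH3T3 cells; actives raise luminescence as potentiators of the MG132 stress response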
[13] = MC4R antagonists, dose response, counter-screen for LGR2 antagonist project, cell-based, plate reader, cherry pick (AID 743444); type: functional;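 further: transfected HEK 293 cells stimulated with alpha-MSH peptide; potency of inhibitors of the alpha-MSH evoked signal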
H9c2 = experiment: cells; type: functional, cell-based; conditions: Rattus norvegicus, H9c2, Myocardium;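 further: confirmatory concentration-response retest of ultra-high-throughput screening hits for modulation of myocardial damage; cell death induced by hydrogen peroxide oxidative stress; compound pretreatment for 60 min then peroxide exposure for 2 h; potency is for protecting the cells against peroxide damage rather than for killing them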
[14] = A549 cell cytotoxicity, dose response, cytotoxicity control, plate reader, cherry-pick, antagonist series (AID 743412); type: functional, cell-based
[15] = LGR2 antagonists, dose response, cell-based, HEK293, CRE-luciferase reporter, cherry pick, set 2 (AID 743343); type: functional;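 further: transfected cells were stimulated with diluted bursicon conditioned medium after compound addition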
Prothrombin = Prothrombin (Homo sapiens, UniProt P00734); experiment: Thrombin 1536 HTS Dose Response Confirmation. [Related pubchem assays: 1046 (Thrombin 1536 HTS; hits were confirmed in this assay)]; type: functional
[16] = HepG2 cell cytotoxicity, dose response, cytotoxicity control, plate reader, cherry-pick, antagonist series (AID 743416); type: functional, cell-based
[17] = HEK293T cytotoxicity, dose response, cytotoxicity control for miR-122 modulator project, cell-based, inhibitor set, cherry-pick, set 2 (AID 720697); type: functional

O=C(CC1C(=O)NCCN1Cc1ccccn1)NCCc1ccccc1F (stereo unspecified)
EC50 (cells [1]): > 29.9 µM (inactive)
EC50 [2]: 2.12 µM (active)
IC50 (cells [3]): > 29.9 µM (inactive)
IC50 [4]: 5.23 µM (active)

Cc1c(O)ccc2c(CC(=O)N[C@@H](Cc3ccc(O)cc3)C(=O)O)cc(=O)oc12
IC50 [5]: 0.906 µM (active)
EC50 [6]: > 195 µM (not active)

Cc1ccc(OCC(=O)N2CCN(c3nnc(-c4ccc(C)cc4)c4ccccc34)CC2)cc1
EC50 [7]: > 60 µM (not active)
IC50 [8]: > 47.1 µM (inactive)
EC50 [9]: > 53 µM (inactive)
EC50 [10]: 3.12 µM (active)
EC50 [11]: 2.35 µM (active)
IC50 (Beta-galactosidase): > 80 µM (inactive)

CN1CCN(C(=O)c2cc3sc4ccccc4c3s2)CC1
EC50 [12]: > 260 µM (inactive)
IC50 (Beta-galactosidase): > 80 µM (inactive)

COc1cc(C(=O)Nc2nc(-c3cccs3)cs2)cc(OC)c1OC
AC50 [13]: 27.7 µM (active)
IC50 (H9c2): > 79 µM (inactive)
AC50 [14]: > 52 µM (inactive)
AC50 [15]: 23.3 µM (active)
IC50 (Prothrombin): 2.64 µM (active)
AC50 [16]: > 52 µM (inactive)

CCOC(=O)c1ccc(NC(=O)c2ccc(CN3CCOCC3)cc2)cc1
AC50 [17]: 19.3 µM (active)
